Assay results from PMC545074, “The two neutrophil members of the formylpeptide receptor family activate the NADPH-oxidase through signals that differ in sensitivity to a gelsolin derived phosphoinositide-binding peptide” (BMC Cell Biology, 2004).
Read-outs that look alike come from different tables or passages of the source. Where a SMILES comes first, the peptide text is derived from it. Where no end group is shown, it is not given here. The star is where a group is joined. RhodamineB = CCN(CC)c1ccc2c(-c3ccccc3C(=O)*)c3ccc(=[N+](CC)CC)cc-3oc2c1

Assays:
FPRL1 [1] = molecular target: T1, FPRL1 (Homo sapiens, UniProt P25090); assay: Neutrophil NADPH-oxidase activity (superoxide anion release, isoluminol-enhanced chemiluminescence) induced through FPRL1; format: cell-based; conditions: for Effect on WKYMVM induced NADPH-oxidase activity (superoxide production): FPRL1 stimulated by WKYMVM, concentration of test substance not given, antagonists and rhodamine: data not shown
T1 construct: Neutrophil granulocytes were isolated from buffy coats obtained from healthy adults; endogenous in cells; host or cells: human neutrophil granulocytes from buffy coats of healthy adults
T1 sequence (P25090 1-351): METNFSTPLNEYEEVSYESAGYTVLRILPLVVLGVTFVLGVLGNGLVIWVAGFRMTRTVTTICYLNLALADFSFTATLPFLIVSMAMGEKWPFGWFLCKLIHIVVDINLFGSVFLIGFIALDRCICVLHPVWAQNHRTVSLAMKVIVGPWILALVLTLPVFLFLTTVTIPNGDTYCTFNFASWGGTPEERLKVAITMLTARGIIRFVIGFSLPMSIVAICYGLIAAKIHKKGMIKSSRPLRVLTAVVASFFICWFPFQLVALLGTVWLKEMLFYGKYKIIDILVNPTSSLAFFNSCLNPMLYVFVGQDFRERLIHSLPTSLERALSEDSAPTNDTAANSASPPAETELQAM
Experimental: (§1) Neutrophil granulocytes were isolated from buffy coats obtained from healthy adults. After dextran sedimentation at 1 × g, hypotonic lysis of the remaining erythrocytes, and centrifugation in a Ficoll-Paque gradient, the neutrophils were washed twice and resuspended (1 × 10^7 /ml) in Krebs-Ringer phosphate buffer containing glucose (10 mM), Ca^2+ (1 mM), and Mg^2+ (1.5 mM) (KRG; pH 7.3). The cells were stored on melting ice and used within 120 min of preparation.
(§2) Neutrophil production and release of superoxide anions was measured by means of an isoluminol-enhanced chemiluminescence (CL) assay. The CL activity was measured in a six-channel Biolumat LB 9505 apparatus (Berthold Co., Wildbad, Germany), using disposable 4-ml polypropylene tubes with a 900-μl reaction mixture containing 10^5–10^6 neutrophils, horseradish peroxidase (4 U) and isoluminol (20 μM) with and without cytochalasin B or PBP10. The measuring tubes were equilibrated for 5 to 10 minutes at 37°C and the cells were activated by addition of a receptor specific peptide agonist, fMLF for FPR and WKYMVM for FPRL1. The light emission was recorded continuously. Details about the CL technique are given in [45].

FPR [2] = assay: Neutrophil NADPH-oxidase activity (superoxide anion release, isoluminol-enhanced chemiluminescence) induced through FPR; format: cell-based, human; conditions: for Effect on fMLF induced NADPH-oxidase activity (superoxide production): FPR stimulated by fMLF, concentration of test substance not given, data not shown
Experimental: as §1, §2

FPRL1 [3] = molecular target: T1, FPRL1; assay: Cytosolic calcium mobilization in neutrophils (Fura-2 fluorescence), FPRL1 agonist WKYMVM; format: cell-based
Experimental: as §1
(§3) Neutrophils at a density of 2 × 10^7/ml in Ca^2+-free KRG supplemented with bovine serum albumin (BSA, 0.1%) were incubated with the acetoxymethylated derivative fura-2/AM (2 μM) at room temperature for 30 minutes. The cells were washed twice and resuspended in KRG, adjusted to 2 × 10^7/ml and kept protected from light on ice until use. Cells with or without PBP10 were equilibrated for 5 minutes at 37°C, after which the peptide agonist was added. The fura-2 fluorescence was followed with a luminescence spectrometer (LS50B; Perkin Elmer Corp.) using excitation wavelengths of 340 nm and 380 nm, and an emission wavelength of 510 nm and the [Ca^2+]i was calculated as described earlier.

FPR [4] = assay: Cytosolic calcium mobilization in neutrophils (Fura-2 fluorescence), FPR agonist fMLF; format: cell-based, human
Experimental: as §1, §3

FPRL1 [5] = molecular target: T1, FPRL1; assay: Mobilization of CR3 to the neutrophil cell surface (FACS), WKYMVM induced; format: cell-based; conditions: PBP10 1 μM at 37°C for 5 minutes, then WKYMVM 100 nM for 10 minutes, four independent experiments
Experimental: as §1
(§4) The exposure of CR3 (CD11b/CD18) on the neutrophil cell surface was assessed by immunostaining and FACS-analysis. Cells challenged with peptide agonists with or without PBP10 were fixed with ice-cold paraformaldehyde and washed with FACSwash (PBS, 0.02% NaN3), after which the cells were incubated at 4°C with phycoerythrin-conjugated anti-CR3 antibodies (CD11b; Becton Dickinson 10 μl/10^6 cells) before analysis using a FACScan (Becton Dickinson, Mountain View, CA).

FPR [6] = assay: Mobilization of CR3 to the neutrophil cell surface (FACS), fMLF induced; format: cell-based, human; conditions: PBP10 1 μM at 37°C for 5 minutes, then fMLF 100 nM for 10 minutes, four independent experiments
Experimental: as §1, §4

[7] = set-up: method as in earlier work; conditions: cited from earlier work
[8] = system: plasma membrane of neutrophils and other cells; conditions: cited from earlier work
FPRL1 [9] = molecular target: T1, FPRL1; set-up: method as in PMID 15147563; conditions: cited from earlier work
FPR [10] = system: FPR; set-up: method as in PMID 15147563; conditions: cited from earlier work
PKC = assay: Neutrophil NADPH-oxidase activity induced by the receptor independent PKC activator PMA; format: cell-based, human; conditions: neutrophils incubated 120 minutes with PTX 500 ng/ml, then PMA 100 nM
[11] = human neutrophils, 100 nM, Fura-2

Molecule: cyclosporine H
- Effect on WKYMVM induced NADPH-oxidase activity (superoxide production) (FPRL1 [1]; human neutrophils): without effect
- Effect on fMLF induced NADPH-oxidase activity (superoxide production) (FPR [2]; human neutrophils): totally inhibited

Molecule: CCN(CC)c1ccc2c(-c3ccccc3C(=O)N[C@@H](CCC(N)=O)C(=O)N[C@@H](CCCNC(=N)N)C(=O)N[C@@H](CC(C)C)C(=O)N[C@@H](Cc3ccccc3)C(=O)N[C@@H](CCC(N)=O)C(=O)N[C@H](C(=O)N[C@@H](CCCCN)C(=O)NCC(=O)N[C@@H](CCCNC(=N)N)C(=O)N[C@@H](CCCNC(=N)N)C(=O)O)C(C)C)c3ccc(=[N+](CC)CC)cc-3oc2c1 [PBP10, rhodamine-B-QRLFQVKGRR] (RhodamineB-QRLFQVKGRR-OH; C-terminus assumed)
- IC50 (FPRL1 [1]): 0.05 µM
- Effect on NADPH-oxidase activity induced by WKYMVM in the presence of cytochalasin B (FPRL1 [1]; cytochalasin B 2.5 μg/ml, WKYMVM 100 nM): largely inhibited
- Effect on WKYMVM induced NADPH-oxidase activity (superoxide production) (FPRL1 [1]; human neutrophils): totally inhibited
- Effect on the FPR-mediated NADPH-oxidase response in the presence of cytochalasin B (FPR [2]; cytochalasin B 2.5 μg/ml, fMLF 100 nM, PBP10 5 μM (higher concentrations required)): only partly inhibited
- Effect on the fMLF induced NADPH-oxidase activity (FPR [2]; human neutrophils, PBP10 at concentrations up to 10 μM prior to activation with fMLF, isoluminol chemiluminescence): no effect
- Effect on the calcium response induced by WKYMVM (FPRL1 [3]; PBP10 1 μM, 5 minutes at 37°C prior to WKYMVM 100 nM, Fura-2, representative experiment): did not alter
- Effect on the calcium response induced by fMLF (FPR [4]; PBP10 1 μM, 5 minutes at 37°C prior to fMLF 100 nM, Fura-2, representative experiment): did not alter
- Effect on WKYMVM induced secretory response (mobilization of CR3 to the cell surface) (FPRL1 [5]): blocked
- Effect on FPR induced granule mobilization (CR3 exposure) (FPR [6]): without effect
- PIP2 binding [7]: PIP2 binding capacity
- Membrane permeability (ability to cross the plasma membrane) ([8]; neutrophils and other cells): membrane permeable

Molecule: Rh-VKGRRG (RhodamineB-VKGRRG) [truncated rhodamine labeled peptide]
- IC50 (FPRL1 [1]; human neutrophils treated with the peptide prior to activation with WKYMVM, superoxide release by isoluminol chemiluminescence, 37°C, Fig 1D three independent experiments, read-out: IC50 value for the WKYMVM induced NADPH-oxidase response): 1 µM

Molecule: Trp-Lys-Tyr-Met-Val-Met-NH2 [WKYMVM, FPRL1 specific hexapeptide agonist]
- Agonist-induced oxidative burst (release of superoxide anions) through FPRL1 (FPRL1 [1]; human neutrophils, 100 nM and 20 nM shown in Fig 1A): robust oxidative burst
- Agonist-induced change in cytosolic calcium through FPRL1 (FPRL1 [3]; [11]): rapid and transient increase

Molecule: QRLFQVKGRR
- Effect of the unconjugated peptide on the WKYMVM induced neutrophil oxidase activity (FPRL1 [1]; 1 μM final concentration, 37°C for 5 minutes, then WKYMVM 100 nM): no effect
- PIP2 binding [7]: same PIP2-binding characteristics as PBP10
- Membrane permeability (ability to cross the plasma membrane) [8]: lacks the ability to cross the plasma membrane

Molecule: N-formyl-Met-Leu-Phe [fMLF, prototype FPR agonist]
- Agonist-induced oxidative burst (release of superoxide anions) through FPR (FPR [2]): robust oxidative burst
- Agonist-induced change in cytosolic calcium through FPR (FPR [4]; [11]): rapid and transient increase

Molecule: COC[C@H]1OC(=O)c2coc3c2[C@@]1(C)C1=C(C3=O)[C@@H]2CCC(=O)[C@@]2(C)C[C@H]1OC(C)=O [Wortmannin]
- Effect of the PI3K inhibitor on oxidase activity induced by WKYMVM (FPRL1 [1]; neutrophils incubated with different concentrations at 37°C for 30 minutes, then WKYMVM 100 nM, representative experiment): largely inhibited
- Effect of the PI3K inhibitor on oxidase activity induced by fMLF (FPR [2]; neutrophils incubated with different concentrations at 37°C for 30 minutes, then fMLF 100 nM, representative experiment): largely inhibited

Molecule: C=C1[C@@H](C)[C@H]2[C@H](Cc3ccccc3)NC(=O)[C@]23OC(=O)/C=C/[C@H](O)CCC[C@@H](C)C/C=C/[C@H]3[C@@H]1O [cytochalasin B]
- Effect of cytochalasin B on the transient rise in intracellular calcium induced by active FPRL1 (FPRL1 [3]; data not shown): not affected
- Effect of cytochalasin B on the transient rise in intracellular calcium induced by active FPR (FPR [4]; data not shown): not affected
- Effect of cytochalasin B on the neutrophil response to FPRL1 agonists (FPRL1 [9]): augmented and prolonged
- Effect of cytochalasin B on the neutrophil response to FPR agonists (FPR [10]): augmented and prolonged

Molecule: WRWWWW [FPRL1 specific antagonist]
- Effect on WKYMVM induced NADPH-oxidase activity (superoxide production) (FPRL1 [1]; human neutrophils): totally inhibited
- Effect on fMLF induced NADPH-oxidase activity (superoxide production) (FPR [2]; human neutrophils): not affected

Molecule: pertussis toxin
- Effect of pertussis toxin on the FPRL1 mediated oxidase response (FPRL1 [1]; neutrophils incubated 120 minutes with PTX 500 ng/ml, then WKYMVM 100 nM): inhibited
- Effect of pertussis toxin on the FPR mediated oxidase response (FPR [2]; neutrophils incubated 120 minutes with PTX 500 ng/ml, then fMLF 100 nM): inhibited
- Effect of pertussis toxin on oxidase activity induced by PMA (PKC): no reduction
